Reference: PubChem BioAssay (NCI)
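Protocol summary: plate cells (96-well), add compound at 5 concentrations, incubate 48 h, interpolate endpoints linearly. Definition used: TGI = concentration required for complete inhibition of growth.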

How the values were obtained:
Assay in all cases: NCI tumour cell line growth inhibition, 48 h
[1] = tested on: 786-0 renal
[2] = tested on: A498 renal
[3] = tested on: A549 NSCLC
[4] = tested on: ACHN renal
[5] = tested on: CAKI-1 renal
[6] = tested on: CCRF-CEM leukemia
[7] = tested on: COLO 205 colon
[8] = tested on: DU-145 prostate
[9] = tested on: EKVX NSCLC
[10] = tested on: HCC-2998 colon
[11] = tested on: HCT-116 colon
[12] = tested on: HCT-15 colon
[13] = tested on: HL-60(TB) leukemia
[14] = tested on: HOP-62 NSCLC
[15] = tested on: HS 578T breast
[16] = tested on: HT29 colon
[17] = tested on: IGROV1 ovarian
[18] = tested on: K-562 leukemia
[19] = tested on: KM12 colon
[20] = tested on: LOX IMVI melanoma
[21] = tested on: M14 melanoma
[22] = tested on: MALME-3M melanoma
[23] = tested on: MCF7 breast
[24] = tested on: MDA-MB-231 breast
[25] = tested on: MDA-MB-435
[26] = tested on: MDA-N
[27] = tested on: MOLT-4 leukemia
[28] = tested on: NCI-H226 lung
[29] = tested on: NCI-H23 lung
[30] = tested on: NCI-H460 lung
[31] = tested on: NCI-H522 lung
[32] = tested on: NCI/ADR-RES ovarian
[33] = tested on: OVCAR-4 ovarian
[34] = tested on: OVCAR-5 ovarian
[35] = tested on: OVCAR-8 ovarian
[36] = tested on: PC-3 prostate
[37] = tested on: RPMI-8226 leukemia
[38] = tested on: RXF 393 renal
[39] = tested on: SF-268 CNS
[40] = tested on: SF-295 CNS
[41] = tested on: SF-539 CNS
[42] = tested on: SK-MEL-2 melanoma
[43] = tested on: SK-MEL-28 melanoma
[44] = tested on: SK-MEL-5 melanoma
[45] = tested on: SK-OV-3 ovarian
[46] = tested on: SN12C renal
[47] = tested on: SNB-19 CNS
[48] = tested on: SNB-75 CNS
[49] = tested on: SR leukemia
[50] = tested on: SW-620 colon
[51] = tested on: T-47D breast
[52] = tested on: U251 CNS
[53] = tested on: UACC-257 melanoma
[54] = tested on: UACC-62 melanoma
[55] = tested on: UO-31 renal

Measured: TGI

NC(=O)c1nnsc1NN=O
> 100 µM: all assays above
